Experimental data from the METLIN SMRT retention time set (Domingo-Almenara et al. 2019).

Test: gradient 5% acetonitrile 3 min, to 50% in 2 min, to 85% in 15 min, held 3 min, 100 µL/min
Details: column: Zorbax Extend-C18 2.1 x 50 mm; eluents: water / acetonitrile, 0.1% formic acid
Procedure, shortened: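 Each retention time is based on an adduct peak selected computationally and verified by manual inspection. Measurements used HPLC–quadrupole time-of-flight mass spectrometry in positive and negative ionization mode on mixtures of ~100 pure standards. Chromatography ran on a Zorbax Extend-C18 column (2.1 × 50 mm, 1.8 μm) at 100 μL/min with water and acetonitrile, each containing 0.1% formic acid, and dead and dwell volumes of 40 μL and 900 μL.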

| SMILES | RP-LC retention time |
| --- | --- |
| Cn1c(=O)c(N2CCC(NC(=O)Nc3ccccc3C(F)(F)F)CC2)nc2ccccc21 | 953 s |
| Cc1ccc(NC(=O)N2CCc3cn(C)c4cccc(c34)C2)c(C)c1 | 980 s |
| CCOC(=O)c1[nH]c(C)c(C(=O)C(C)N(Cc2ccc(F)cc2)C(=O)C(C)C)c1C (stereo not given) | 950 s |
| CCOC(=O)N1CCN(c2ccc(C(F)(F)F)cc2[N+](=O)[O-])CC1 | 967 s |
| Cc1cc(C)c(C)c(S(=O)(=O)N2CCCC2c2nc(-c3ccc(F)cc3)no2)c1C (stereo not given) | 1310 s |
| c1ccc(CCCCN2CCC(c3ccccc3)CC2)cc1 | 851 s |
| CCN(CC)S(=O)(=O)c1ccc(-n2cnc(C(=O)Nc3cc(C(C)(C)C)ccc3O)c2)cc1 | 1060 s |
| Cc1cc(C(=O)NCCc2ccc(Cl)cc2)n(-c2ccccc2)n1 | 911 s |
| COCCc1noc(C2CN(C(=O)C(C)C)C2)n1 | 621 s |
| O=C(Nc1ccc(Br)cc1)NC1CCN(c2ccccc2)C1=O (stereo not given) | 849 s |
| COc1ccc(C2OC(c3cc(Cl)ccc3OC(C)=O)=NN2C(C)=O)cc1 (stereo not given) | 956 s |
| CCOc1nc2ccccc2nc1N1CCCC(C(=O)NC2CCCCC2)C1 (stereo not given) | 1170 s |
| COCCn1c(C2CCN(S(=O)(=O)c3ccc(C(C)C)cc3)C2)nc2cccnc21 (stereo not given) | 927 s |
| Cc1ccc(Cl)cc1NC(=O)N1CCC(c2nc3ccncc3n2C(C)C)C1 (stereo not given) | 573 s |
| CC(=O)N1CCN(c2nc(C)cc(N3CCCC3)n2)CC1 | 580 s |
| Cc1nnc(-c2ccc3ccn(CC(=O)N4CCN(c5ccccc5)CC4)c3c2)o1 | 801 s |
| Cn1cnc(S(=O)(=O)N2CCC(c3noc(-c4cccnc4)n3)C2)c1 (stereo not given) | 627 s |
| Cc1ccc(NC(=O)Cn2c(=O)c(CCC(=O)NC3CCCC3)nc3ccccc32)c(C)c1 | 841 s |
| CCOc1ccc(NC(=O)N2CCN(c3cc(C)nc(Nc4ccc(C)cc4)n3)CC2)cc1 | 727 s |
| CSc1ccc(-c2nc3cccc(C)n3c2Nc2ccc3c(c2)OCCO3)cc1 | 719 s |
| O=C(Nc1nnc(C2CC(=O)N(c3ccc(F)cc3)C2)o1)c1ccc(Br)cc1 (stereo not given) | 783 s |
| COc1ccccc1NC(=O)c1c(O)c2cccnc2n(-c2ccc(F)cc2)c1=O | 864 s |
| COc1ccc(-c2ccnc3nc(CCc4ccc(OC)c(OC)c4)nn23)cc1 | 859 s |

| SMILES | RP-LC retention time |
| --- | --- |
| Cc1ccccc1CNC(=O)CN1C(=O)C(C)(C)c2ccccc21 | 874 s |
| CC(=O)c1ccc(NC(=O)CN2C(=O)C3CCCCN3c3ccc(C(=O)N4CCCC4)cc32)cc1 (stereo not given) | 996 s |
| COc1cc(NC(C)=O)c2ncccc2c1Br | 960 s |
| Cc1cc(C)c(S(=O)(=O)N2CCC(C(=O)NCc3csc(-c4ccccc4)n3)CC2)cc1C | 1050 s |
| CCOc1ccc(-c2noc(CN3C(=O)COc4ccc(C(C)(C)C)cc43)n2)cc1OC | 1230 s |
| CCC(C)NC(=O)c1ccc2c(c1)CC(=O)N2C (stereo not given) | 644 s |
| CCCOc1nccnc1N1CCC(N(C)C(=O)Cc2cccnc2)C1 (stereo not given) | 599 s |
| COc1ccc(-c2csc(NC(=O)CSc3nc(C)cc(C)n3)n2)cc1 | 979 s |
| CCN1C(=O)COc2ccc(-c3noc(-c4cc(C)cc(C)c4)n3)cc21 | 1330 s |
| CN(CCCNC(=O)C1c2ccccc2C(=O)N(C)C1c1cccs1)Cc1ccccc1 (stereo not given) | 645 s |
| CCc1nc2cc(-c3noc(-c4cccc(N(C)C)c4)n3)ccc2o1 | 1230 s |
| Cc1ccc(S(=O)(=O)N2CCc3c(c(-c4nnc(-c5ccc(F)cc5)o4)nn3C)C2)c(C)c1 | 1060 s |
| CC1CCCN(C(=O)c2ccc3ncnc(N4CCCC4)c3c2)C1 (stereo not given) | 640 s |
| O=C(NCC1CCOCC1)c1ccc2c(c1)OCO2 | 655 s |
| Cc1cccc(CN2N=C(C(=O)N3CCCCC3)S(=O)(=O)c3ccccc32)c1 | 1010 s |
| O=S(=O)(c1cccc2c(Cl)cccc12)N1CCCNCC1 | 716 s |
| O=C(NC1CCCN(c2cc(-c3ccc(F)cc3)[nH]n2)C1)c1ccc2c(c1)OCO2 (stereo not given) | 796 s |
| CCOc1ccccc1NC(=O)Cn1cnc2nc(N3CCC(C(=O)NC4CC4)CC3)sc2c1=O | 696 s |
| CCc1ccccc1N(C(=O)C1CCCCC1)C1C=CS(=O)(=O)C1 (stereo not given) | 894 s |
| O=C(Nc1ccc(F)c(Cl)c1)C1CCN(S(=O)(=O)c2ccc3[nH]c(=O)ccc3c2)CC1 | 812 s |
| COC(=O)c1ccc(Cl)cc1NC(=O)N1CCCn2nc(-c3cccs3)cc2C1 | 1120 s |
| O=C(c1cccnc1)N1CCC(c2nc(-c3ccccc3)no2)C1 (stereo not given) | 726 s |
